US8969565B2, “Imidazo[1,2-b]pyridazine-based compounds, compositions comprising them, and methods of their use” (Lexicon Pharmaceuticals, Inc., priority 2012, dated 2015)

Columns and labels:
[1] = molecular target: T1, AAK1 (Homo sapiens, UniProt Q2M2I8); assay: HEK281 cell-based assay (phospho-mu2 Western blot in transfected HEK293F cells); settings: 3 hours incubation, read-out: CBA IC50
T1 construct: HA; expressed in transfected cells; host or cells: HEK293F
Outline: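 After 3 hours at 37° C. with compound (five 3-fold-spaced concentrations, DMEM+0.5% FBS), transiently transfected HEK293F cells expressing full-length human AAK1 and Flag-tagged mu2 were lysed. mu2 phosphorylation was read by anti-phospho-mu2 immunoblot, normalized against total mu2 by anti-Flag blot.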

[2] = molecular target: T1, AAK1; assay: P81 filter plate assay; assay type: biochemical; settings: full-length human AAK1, Mu2 substrate

T1 sequence (Q2M2I8 1-863 isoform Q2M2I8-2): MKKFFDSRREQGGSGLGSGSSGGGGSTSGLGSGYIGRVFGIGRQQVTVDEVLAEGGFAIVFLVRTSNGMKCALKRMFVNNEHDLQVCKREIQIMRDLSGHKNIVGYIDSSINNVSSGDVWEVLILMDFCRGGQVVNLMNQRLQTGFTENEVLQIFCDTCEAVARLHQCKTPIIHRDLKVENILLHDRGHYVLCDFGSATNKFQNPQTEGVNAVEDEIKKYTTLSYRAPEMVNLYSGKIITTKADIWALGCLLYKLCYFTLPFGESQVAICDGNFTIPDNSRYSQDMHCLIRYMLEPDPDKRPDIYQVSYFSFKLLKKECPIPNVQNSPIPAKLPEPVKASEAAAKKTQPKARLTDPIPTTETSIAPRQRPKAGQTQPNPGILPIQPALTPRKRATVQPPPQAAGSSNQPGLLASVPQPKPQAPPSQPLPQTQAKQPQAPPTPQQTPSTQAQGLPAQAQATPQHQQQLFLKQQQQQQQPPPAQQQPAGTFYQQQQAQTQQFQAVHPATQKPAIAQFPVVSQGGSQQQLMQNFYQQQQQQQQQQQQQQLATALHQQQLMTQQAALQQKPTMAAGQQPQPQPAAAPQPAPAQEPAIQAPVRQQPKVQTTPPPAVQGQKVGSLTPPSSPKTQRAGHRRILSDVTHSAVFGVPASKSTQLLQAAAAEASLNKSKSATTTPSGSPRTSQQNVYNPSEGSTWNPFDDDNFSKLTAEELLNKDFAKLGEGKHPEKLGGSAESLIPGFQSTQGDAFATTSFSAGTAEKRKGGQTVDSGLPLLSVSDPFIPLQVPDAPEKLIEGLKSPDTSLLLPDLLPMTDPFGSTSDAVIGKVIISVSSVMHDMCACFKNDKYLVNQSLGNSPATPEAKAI

SMILES	melting point	IC50 [1]	IC50 [2]
CCCCNc1ccc2ncc(-c3ccc(-c4nnn[nH]4)cc3)n2n1 [Butyl-{3-[4-(1H-tetrazol-5-yl)-phenyl]-imidazo[1,2-b]pyridazin-6-yl}-mine]	270 to 271 °C	≤ 1000 nM	
CC(C)(C)OC(=O)N1CCN(c2ccc3ncc(-c4ccccc4)n3n2)CC1 [4-(3-Phenyl-imidazo[1,2-b]pyridazin-6-yl)-piperazine-1-carboxylic acid tert-butyl ester]	101 to 103 °C (dec.)	≤ 100 nM	≤ 10 nM
CC(C)(C)NC(=O)N1CCN(c2ccc3ncc(Br)n3n2)CC1 [4-(3-Bromoimidazo[1,2-b]pyridazin-6-yl)-N-(tert-butyl)piperazine-1-carboxamide]	199 to 200 °C	≤ 100 nM	≤ 10 nM
CCCCN(C)c1ccc2ncc(-c3ccc(CN)cc3)n2n1 [[3-(4-Aminomethyl-phenyl)-imidazo[1,2-b]pyridazin-6-yl]-butyl-methyl-amine]	99 to 101 °C	≤ 1000 nM	
